In the kinase profiling compilation of Christmann-Franck et al. (2016):

How the values were obtained:
Test in all cases: radiometric filter-binding kinase assay, Kinase HotSpot
Conditions in all cases: compound 0.5 µM; ATP 10 µM
[1] = molecular target: AKT2 (human) (UniProt P31751)
[2] = molecular target: AKT3 (human) (UniProt Q9Y243)
[3] = molecular target: CAMK1G (human) (UniProt Q96NX5)
[4] = molecular target: CDK3 CCNE1 (human) (UniProt Q00526+P24864)
[5] = molecular target: CDK5 CDK5R1 p25 (human) (UniProt Q00535+Q15078)
[6] = molecular target: CDK7 CCNH MNAT1 (human) (UniProt P50613+P51948+P51946)
[7] = molecular target: CDK9 CCNT1 (human) (UniProt P50750+O60563)
[8] = molecular target: CSF1R (human) (UniProt P07333)
[9] = molecular target: EPHA5 (human) (UniProt P54756)
[10] = molecular target: EPHB1 (human) (UniProt P54762)
[11] = molecular target: EPHB3 (human) (UniProt P54753)
[12] = molecular target: FGFR3 (human) (UniProt P22607)
[13] = molecular target: GRK6 (human) (UniProt P43250)
[14] = molecular target: GRK7 (human) (UniProt Q8WTQ7)
[15] = molecular target: GSK3A (human) (UniProt P49840)
[16] = molecular target: HIPK2 (human) (UniProt Q9H2X6)
[17] = molecular target: MAP3K10 (human) (UniProt Q02779)
[18] = molecular target: MAP3K11 (human) (UniProt Q16584)
[19] = molecular target: MAP3K3 (human) (UniProt Q99759)
[20] = molecular target: MAP3K5 (human) (UniProt Q99683)
[21] = molecular target: MAP4K5 (human) (UniProt Q9Y4K4)
[22] = molecular target: MAPK8 (human) (UniProt P45983)
[23] = molecular target: MET (human) (UniProt P08581)
[24] = molecular target: MINK1 (human) (UniProt Q8N4C8)
[25] = molecular target: MUSK (human) (UniProt O15146)
[26] = molecular target: NEK6 (human) (UniProt Q9HC98)
[27] = molecular target: NLK (human) (UniProt Q9UBE8)
[28] = molecular target: NUAK1 (human) (UniProt O60285)
[29] = molecular target: PKN1 (human) (UniProt Q16512)
[30] = molecular target: PLK2 (human) (UniProt Q9NYY3)
[31] = molecular target: PRKCD (human) (UniProt Q05655)
[32] = molecular target: PRKG2 (human) (UniProt Q13237)
[33] = molecular target: ROCK2 (human) (UniProt O75116)
[34] = molecular target: ROS1 (human) (UniProt P08922)
[35] = molecular target: RPS6KA2 KD1 KD2 (human) (UniProt Q15349)
[36] = molecular target: RPS6KA6 KD1 KD2 (human) (UniProt Q9UK32)
[37] = molecular target: RPS6KB1 (human) (UniProt P23443)
[38] = molecular target: SRPK1 (human) (UniProt Q96SB4)
[39] = molecular target: TEC (human) (UniProt P42680)
[40] = molecular target: TSSK2 (human) (UniProt Q96PF2)
[41] = molecular target: MARK2 (human) (UniProt Q7KZI7)

CAMK1G (human), sequence (Q96NX5 whole entry, looked up): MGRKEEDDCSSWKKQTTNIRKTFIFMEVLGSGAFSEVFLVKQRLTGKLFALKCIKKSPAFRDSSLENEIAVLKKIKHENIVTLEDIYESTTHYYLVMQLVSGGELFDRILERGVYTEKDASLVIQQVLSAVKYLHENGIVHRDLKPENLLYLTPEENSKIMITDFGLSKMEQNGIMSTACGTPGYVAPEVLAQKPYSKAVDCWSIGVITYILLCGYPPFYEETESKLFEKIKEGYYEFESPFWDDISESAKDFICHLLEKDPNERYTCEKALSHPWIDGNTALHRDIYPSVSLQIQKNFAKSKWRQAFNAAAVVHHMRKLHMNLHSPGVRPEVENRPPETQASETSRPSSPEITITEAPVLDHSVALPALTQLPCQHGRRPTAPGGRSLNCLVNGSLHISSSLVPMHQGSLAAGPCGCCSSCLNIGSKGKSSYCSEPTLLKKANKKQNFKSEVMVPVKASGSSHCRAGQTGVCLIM
MAP3K10 (human), sequence (Q02779 whole entry, looked up): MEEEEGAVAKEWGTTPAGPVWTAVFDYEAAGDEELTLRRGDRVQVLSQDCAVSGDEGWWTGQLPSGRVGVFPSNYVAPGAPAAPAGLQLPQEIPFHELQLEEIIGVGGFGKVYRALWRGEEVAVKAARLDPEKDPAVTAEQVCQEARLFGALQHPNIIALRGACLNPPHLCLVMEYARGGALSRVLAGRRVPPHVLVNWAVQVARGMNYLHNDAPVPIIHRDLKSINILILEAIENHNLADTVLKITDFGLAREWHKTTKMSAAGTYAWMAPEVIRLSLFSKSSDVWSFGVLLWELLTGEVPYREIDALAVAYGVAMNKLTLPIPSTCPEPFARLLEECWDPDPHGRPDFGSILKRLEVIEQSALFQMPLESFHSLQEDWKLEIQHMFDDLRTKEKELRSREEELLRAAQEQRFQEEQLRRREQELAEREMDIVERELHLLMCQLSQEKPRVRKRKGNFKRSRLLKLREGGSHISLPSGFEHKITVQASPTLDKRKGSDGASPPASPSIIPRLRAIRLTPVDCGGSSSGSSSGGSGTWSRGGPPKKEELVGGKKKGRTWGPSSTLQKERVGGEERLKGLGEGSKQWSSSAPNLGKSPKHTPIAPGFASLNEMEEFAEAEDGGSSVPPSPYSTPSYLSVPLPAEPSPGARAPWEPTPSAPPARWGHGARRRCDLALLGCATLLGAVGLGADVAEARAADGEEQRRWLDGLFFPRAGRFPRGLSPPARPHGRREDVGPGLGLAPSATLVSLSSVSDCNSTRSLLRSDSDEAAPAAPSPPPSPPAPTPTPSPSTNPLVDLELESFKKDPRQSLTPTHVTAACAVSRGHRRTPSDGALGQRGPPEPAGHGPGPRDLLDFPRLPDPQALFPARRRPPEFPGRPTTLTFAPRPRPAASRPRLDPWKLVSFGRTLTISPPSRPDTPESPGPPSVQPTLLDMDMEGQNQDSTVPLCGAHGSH
SRPK1 (human), sequence (Q96SB4 whole entry, looked up): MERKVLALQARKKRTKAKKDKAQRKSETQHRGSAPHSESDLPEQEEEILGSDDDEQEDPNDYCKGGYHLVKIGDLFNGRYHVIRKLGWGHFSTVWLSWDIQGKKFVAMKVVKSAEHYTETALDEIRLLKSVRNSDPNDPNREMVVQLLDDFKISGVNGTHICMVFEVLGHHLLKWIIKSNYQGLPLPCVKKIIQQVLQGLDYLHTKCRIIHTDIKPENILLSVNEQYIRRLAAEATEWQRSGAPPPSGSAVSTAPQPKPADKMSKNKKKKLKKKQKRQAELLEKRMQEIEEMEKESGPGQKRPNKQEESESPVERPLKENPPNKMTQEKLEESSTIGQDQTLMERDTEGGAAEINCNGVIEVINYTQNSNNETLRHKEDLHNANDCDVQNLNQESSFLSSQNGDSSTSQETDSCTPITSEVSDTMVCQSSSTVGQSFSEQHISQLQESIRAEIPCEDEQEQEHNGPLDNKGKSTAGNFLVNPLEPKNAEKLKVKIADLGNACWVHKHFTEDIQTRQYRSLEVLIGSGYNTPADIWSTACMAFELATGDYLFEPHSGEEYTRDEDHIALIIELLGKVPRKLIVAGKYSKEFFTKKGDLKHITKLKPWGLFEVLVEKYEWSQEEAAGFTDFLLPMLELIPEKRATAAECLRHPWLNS
PKN1 (human), sequence (Q16512 whole entry, looked up): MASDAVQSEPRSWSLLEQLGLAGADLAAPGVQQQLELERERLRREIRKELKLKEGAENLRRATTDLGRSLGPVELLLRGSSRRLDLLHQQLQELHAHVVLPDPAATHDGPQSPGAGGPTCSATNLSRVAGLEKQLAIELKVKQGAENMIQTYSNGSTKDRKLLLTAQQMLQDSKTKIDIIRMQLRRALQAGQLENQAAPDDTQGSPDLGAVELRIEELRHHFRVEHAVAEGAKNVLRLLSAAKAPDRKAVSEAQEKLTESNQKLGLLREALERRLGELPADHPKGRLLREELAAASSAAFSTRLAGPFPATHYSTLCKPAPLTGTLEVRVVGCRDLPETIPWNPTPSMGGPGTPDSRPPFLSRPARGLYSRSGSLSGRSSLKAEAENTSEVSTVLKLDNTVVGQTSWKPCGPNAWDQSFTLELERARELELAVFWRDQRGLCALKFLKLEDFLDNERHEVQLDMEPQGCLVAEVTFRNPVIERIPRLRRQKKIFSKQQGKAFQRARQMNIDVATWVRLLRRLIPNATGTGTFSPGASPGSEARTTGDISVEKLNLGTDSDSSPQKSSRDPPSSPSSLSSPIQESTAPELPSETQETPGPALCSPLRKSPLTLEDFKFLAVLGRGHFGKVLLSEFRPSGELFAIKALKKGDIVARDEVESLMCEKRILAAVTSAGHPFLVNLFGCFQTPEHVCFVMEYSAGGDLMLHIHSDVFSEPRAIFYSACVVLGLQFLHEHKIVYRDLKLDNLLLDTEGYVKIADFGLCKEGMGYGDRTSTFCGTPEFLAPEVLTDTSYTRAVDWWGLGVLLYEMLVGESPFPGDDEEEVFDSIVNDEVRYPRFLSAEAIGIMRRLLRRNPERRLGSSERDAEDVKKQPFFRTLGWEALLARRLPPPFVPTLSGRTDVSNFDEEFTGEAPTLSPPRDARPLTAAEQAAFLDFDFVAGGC
PRKCD (human), sequence (Q05655 whole entry, looked up): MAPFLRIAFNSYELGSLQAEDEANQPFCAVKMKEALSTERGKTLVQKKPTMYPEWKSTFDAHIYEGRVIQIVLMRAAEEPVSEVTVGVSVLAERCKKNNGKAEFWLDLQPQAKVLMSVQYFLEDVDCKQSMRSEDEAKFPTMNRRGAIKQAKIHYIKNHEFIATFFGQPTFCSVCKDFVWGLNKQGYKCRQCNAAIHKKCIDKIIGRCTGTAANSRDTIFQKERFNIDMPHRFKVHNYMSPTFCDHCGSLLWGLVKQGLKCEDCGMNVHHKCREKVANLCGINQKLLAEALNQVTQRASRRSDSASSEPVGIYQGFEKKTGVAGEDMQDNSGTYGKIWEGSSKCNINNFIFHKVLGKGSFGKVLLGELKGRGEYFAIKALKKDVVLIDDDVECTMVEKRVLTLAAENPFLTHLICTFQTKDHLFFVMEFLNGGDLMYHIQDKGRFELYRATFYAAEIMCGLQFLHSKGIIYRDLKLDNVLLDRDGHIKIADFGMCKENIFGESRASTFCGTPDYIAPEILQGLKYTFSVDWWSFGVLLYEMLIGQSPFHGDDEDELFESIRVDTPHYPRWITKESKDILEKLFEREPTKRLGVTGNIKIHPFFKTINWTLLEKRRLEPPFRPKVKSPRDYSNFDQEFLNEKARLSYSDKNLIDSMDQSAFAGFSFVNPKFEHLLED
RPS6KA2 KD1 KD2 (human), sequence (Q15349 whole entry, looked up): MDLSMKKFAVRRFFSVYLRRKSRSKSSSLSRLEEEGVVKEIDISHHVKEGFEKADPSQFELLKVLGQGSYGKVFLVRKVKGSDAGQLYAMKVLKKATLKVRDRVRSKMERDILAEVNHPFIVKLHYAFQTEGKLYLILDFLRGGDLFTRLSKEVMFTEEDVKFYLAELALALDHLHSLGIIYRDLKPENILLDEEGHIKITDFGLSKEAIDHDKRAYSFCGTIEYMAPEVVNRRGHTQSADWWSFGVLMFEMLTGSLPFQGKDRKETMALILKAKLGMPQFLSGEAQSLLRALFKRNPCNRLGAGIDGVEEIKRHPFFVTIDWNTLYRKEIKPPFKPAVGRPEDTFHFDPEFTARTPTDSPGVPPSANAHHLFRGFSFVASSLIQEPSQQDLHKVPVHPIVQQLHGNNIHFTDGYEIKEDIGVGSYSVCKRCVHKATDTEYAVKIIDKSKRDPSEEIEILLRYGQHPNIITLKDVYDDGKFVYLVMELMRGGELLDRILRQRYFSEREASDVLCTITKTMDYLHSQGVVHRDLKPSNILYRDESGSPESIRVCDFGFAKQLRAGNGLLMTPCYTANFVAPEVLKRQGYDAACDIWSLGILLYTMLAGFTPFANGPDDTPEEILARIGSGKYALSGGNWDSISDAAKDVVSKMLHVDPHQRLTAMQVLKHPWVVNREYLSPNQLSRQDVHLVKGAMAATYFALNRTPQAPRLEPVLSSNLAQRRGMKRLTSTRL
GSK3A (human), sequence (P49840 whole entry, looked up): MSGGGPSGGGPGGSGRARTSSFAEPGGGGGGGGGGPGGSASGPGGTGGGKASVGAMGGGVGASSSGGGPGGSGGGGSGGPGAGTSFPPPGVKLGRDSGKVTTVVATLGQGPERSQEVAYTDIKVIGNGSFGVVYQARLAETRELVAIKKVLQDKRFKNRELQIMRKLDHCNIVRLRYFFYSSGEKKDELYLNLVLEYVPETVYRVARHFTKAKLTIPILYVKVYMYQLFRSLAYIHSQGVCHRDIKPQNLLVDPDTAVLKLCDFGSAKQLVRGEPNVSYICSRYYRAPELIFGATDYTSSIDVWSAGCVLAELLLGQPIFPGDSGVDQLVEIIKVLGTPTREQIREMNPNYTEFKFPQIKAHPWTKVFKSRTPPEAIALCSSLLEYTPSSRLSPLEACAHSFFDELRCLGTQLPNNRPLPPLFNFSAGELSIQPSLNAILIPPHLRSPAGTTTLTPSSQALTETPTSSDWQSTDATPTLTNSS

SMILES	residual activity [1] [%]	residual activity [2] [%]	residual activity [3] [%]	residual activity [4] [%]	residual activity [5] [%]	residual activity [6] [%]	residual activity [7] [%]	residual activity [8] [%]	residual activity [9] [%]	residual activity [10] [%]	residual activity [11] [%]	residual activity [12] [%]	residual activity [13] [%]	residual activity [14] [%]	residual activity [15] [%]	residual activity [16] [%]	residual activity [17] [%]	residual activity [18] [%]	residual activity [19] [%]	residual activity [22] [%]	also measured
Nc1nc(Nc2ccc(S(N)(=O)=O)cc2)nn1C(=O)c1c(F)cccc1F	107	95	101	32.4	2.54	81.1	27.6	49.2	92.2	84.1	98.5	46.4	77.2	65.9	9.59	72.8	77.8	47.2	27.5	85.9	residual activity [20]: 103%; residual activity [21]: 45.3%; residual activity [23]: 75.3%; residual activity [24]: 98.1%; residual activity [25]: 83.1%; residual activity [26]: 102%; residual activity [27]: 86%; residual activity [28]: 3.29%; residual activity [29]: 89.7%; residual activity [30]: 94.2%; residual activity [31]: 81.2%; residual activity [32]: 92.2%; residual activity [33]: 18.6%; residual activity [34]: 39.5%; residual activity [35]: 42.2%; residual activity [36]: 24.7%; residual activity [37]: 92.1%; residual activity [38]: 86.4%; residual activity [39]: 122%; residual activity [40]: 103%
O=c1cc(N2CCNCC2)oc2c(-c3ccccc3)cccc12	100	102	94.7	96.9	94.5	99.3	98.8	108	109	94.8	94.5	96.3	89.6	114	99.7	108	87.9	97.8	109	89.3	residual activity [20]: 106%; residual activity [41]: 105%; residual activity [23]: 107%; residual activity [24]: 97%; residual activity [25]: 103%; residual activity [26]: 105%; residual activity [27]: 98.8%; residual activity [28]: 95.5%; residual activity [29]: 99.6%; residual activity [30]: 98.9%; residual activity [31]: 99.6%; residual activity [32]: 107%; residual activity [33]: 87.5%; residual activity [34]: 99.2%; residual activity [35]: 106%; residual activity [36]: 99%; residual activity [37]: 102%; residual activity [38]: 106%; residual activity [39]: 99.8%; residual activity [40]: 101%
O=C(Nc1ccc(Cl)cc1)c1ccccc1NCc1ccncc1	95.2	97.9	101	87.4	84.9	95.1	81.9	18.4	82.1	90.2	96.9	92.2	101	96.2	80.1	93	104	89	96.2	109	residual activity [21]: 95.8%; residual activity [41]: 92.7%; residual activity [23]: 92.2%; residual activity [24]: 96.9%; residual activity [25]: 95.9%; residual activity [26]: 97.1%; residual activity [27]: 87.2%; residual activity [28]: 96.5%; residual activity [29]: 95.2%; residual activity [30]: 99.3%; residual activity [31]: 84.7%; residual activity [32]: 99.1%; residual activity [33]: 93.8%; residual activity [34]: 100%; residual activity [35]: 94.1%; residual activity [36]: 104%; residual activity [37]: 92.5%; residual activity [38]: 109%; residual activity [39]: 134%; residual activity [40]: 86.3%
